PubChem BioAssay AID248 (DTP/NCI, 2004)
Inconclusive results and toxic doses are left out. Cut-off read from the data, not from the text of the source: active = T/C of 150% or more; inactive = T/C below 125%.

System: L1210 leukemia ip in BDF1 mice, survival T/C
Test: NCI In Vivo Anticancer Drug Screen. Data for tumor model L1210 Leukemia (intraperitoneal) in B6D2F1 (BDF1) mice
Settings: endpoint: mean survival time, higher = longer survival
How it was run: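 Mice bearing the transplanted tumor received compound or vehicle. Survival of the treated group was divided by that of the vehicle-treated control group to give the ratio.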

[1] = dose: 100.0 mg/kg/injection, schedule: Q04DX003 (ip), vehicle: saline with Tween-80
[2] = dose: 200.0 mg/kg/injection, schedule: Q04DX003 (ip), vehicle: saline with Tween-80
[3] = dose: 100.0 mg/kg/injection, schedule: Q01DX009 (ip), vehicle: Klucel (hydroxypropylcellulose) (HPC)
[4] = dose: 200.0 mg/kg/injection, schedule: Q01DX009 (ip), vehicle: Klucel (hydroxypropylcellulose) (HPC)
[5] = dose: 400.0 mg/kg/injection, schedule: Q01DX009 (ip), vehicle: Klucel (hydroxypropylcellulose) (HPC)
[6] = dose: 25.0 mg/kg/injection, schedule: Q04DX003 (ip), vehicle: saline with Tween-80
[7] = dose: 50.0 mg/kg/injection, schedule: Q04DX003 (ip), vehicle: saline with Tween-80
[8] = dose: 100.0 mg/kg/injection, schedule: Q04DX003 (ip), vehicle: Klucel (hydroxypropylcellulose) (HPC)
[9] = dose: 200.0 mg/kg/injection, schedule: Q04DX003 (ip), vehicle: Klucel (hydroxypropylcellulose) (HPC)
[10] = dose: 400.0 mg/kg/injection, schedule: Q04DX003 (ip), vehicle: Klucel (hydroxypropylcellulose) (HPC)

Measured: T/C

Nc1ccc(NC(=O)c2ccc(C(=O)Nc3ccc(N)cc3)cc2)cc1
inactive: dose: 30.0 mg/kg/injection, schedule: Q01DX Z (ip), vehicle: methylcellulose (MC) 103 % of control | dose: 60.0 mg/kg/injection, schedule: Q01DX Z (ip), vehicle: methylcellulose (MC) 103 % of control | dose: 120.0 mg/kg/injection, schedule: Q01DX Z (ip), vehicle: methylcellulose (MC) 95 % of control | dose: 125.0 mg/kg/injection, schedule: Q01DX Z (ip), vehicle: water 96 % of control | dose: 250.0 mg/kg/injection, schedule: Q01DX Z (ip), vehicle: water 93 % of control | dose: 500.0 mg/kg/injection, schedule: Q01DX Z (ip), vehicle: water 98 % of control

OCCC#CCCOC1CCCCO1 (stereo not drawn)
inactive: dose: 100.0 mg/kg/injection, schedule: Q04DX002 (ip), vehicle: saline with Tween-80 93 % of control | dose: 200.0 mg/kg/injection, schedule: Q04DX002 (ip), vehicle: saline with Tween-80 103 % of control | dose: 400.0 mg/kg/injection, schedule: Q04DX002 (ip), vehicle: saline with Tween-80 103 % of control

O=C(Nc1ccc(Cc2ccc(NC(=O)Nc3cccc(C4=NCCN4)c3)cc2)cc1)Nc1cccc(C2=NCCN2)c1
inactive: dose: 111.0 mg/kg/injection, schedule: Q01DX Z (ip), vehicle: carboxymethylcellulose (CMC) 101 % of control | dose: 120.0 mg/kg/injection, schedule: Q01DX Z (ip), vehicle: carboxymethylcellulose (CMC) 98 % of control | dose: 166.0 mg/kg/injection, schedule: Q01DX Z (ip), vehicle: carboxymethylcellulose (CMC) 101 % of control | dose: 180.0 mg/kg/injection, schedule: Q01DX Z (ip), vehicle: carboxymethylcellulose (CMC) 98 % of control | dose: 250.0 mg/kg/injection, schedule: Q01DX Z (ip), vehicle: carboxymethylcellulose (CMC) 107 % of control | dose: 270.0 mg/kg/injection, schedule: Q01DX Z (ip), vehicle: carboxymethylcellulose (CMC) 101 % of control | dose: 375.0 mg/kg/injection, schedule: Q01DX Z (ip), vehicle: carboxymethylcellulose (CMC) 107 % of control | dose: 405.0 mg/kg/injection, schedule: Q01DX Z (ip), vehicle: carboxymethylcellulose (CMC) 100 % of control

c1ccc2c(c1)cc1ncc3cccc4ccc2c1c43
inactive: [1] 88 % of control | [2] 102 % of control | dose: 400.0 mg/kg/injection, schedule: Q04DX003 (ip), vehicle: saline with Tween-80 88 % of control

O=C(NNC(=S)Nc1ccc(S(=O)(=O)N2CCCCC2)cc1)c1ccncc1
inactive: [3] 92 % of control | [4] 92 % of control | [5] 91 % of control

ClCCN(CCCl)CCCN1c2ccccc2Sc2ccc(Cl)cc21
inactive: dose: 1.56 mg/kg/injection, schedule: Q01DX009 (ip), vehicle: saline with Tween-80 100 % of control | dose: 3.12 mg/kg/injection, schedule: Q01DX001 (ip), vehicle: saline with Tween-80 105 % of control | dose: 3.12 mg/kg/injection, schedule: Q01DX009 (ip), vehicle: saline with Tween-80 112 % of control | dose: 6.25 mg/kg/injection, schedule: Q01DX001 (ip), vehicle: saline with Tween-80 103 % of control | dose: 6.25 mg/kg/injection, schedule: Q01DX009 (ip), vehicle: saline with Tween-80 110 % of control | dose: 6.25 mg/kg/injection, schedule: Q04DX003 (ip), vehicle: saline with Tween-80 102 % of control | dose: 12.5 mg/kg/injection, schedule: Q01DX001 (ip), vehicle: saline with Tween-80 108 % of control | dose: 12.5 mg/kg/injection, schedule: Q01DX009 (ip), vehicle: saline with Tween-80 112 % of control | dose: 12.5 mg/kg/injection, schedule: Q04DX003 (ip), vehicle: saline with Tween-80 107 % of control | [6] 110 % of control | [7] 122 % of control

COC(=O)[C@@H]1c2cc3c(c(O)c2[C@@H](OC2OC(C)C(OC)C(C)(OC)C2OC)C[C@]1(C)O)C(=O)c1c(O)cc2c(c1C3=O)O[C@H]1O[C@]2(C)[C@H](O)[C@@H](N(C)C)[C@@H]1O (stereo partly drawn)
inactive: dose: 0.2 mg/kg/injection, schedule: Q01DX Z (ip), vehicle: saline 98 % of control | dose: 0.25 mg/kg/injection, schedule: Q01DX009 (ip), vehicle: saline 102 % of control | dose: 0.3 mg/kg/injection, schedule: Q01DX Z (ip), vehicle: saline 116 % of control | dose: 0.44 mg/kg/injection, schedule: Q01DX Z (ip), vehicle: saline 107 % of control | dose: 0.5 mg/kg/injection, schedule: Q01DX009 (ip), vehicle: saline 107 % of control | dose: 0.67 mg/kg/injection, schedule: Q01DX Z (ip), vehicle: saline 112 % of control | dose: 0.8 mg/kg/injection, schedule: Q## X008 (ip), vehicle: saline 113 % of control | dose: 0.8 mg/kg/injection, schedule: Q## X032 (ip), vehicle: saline 113 % of control | dose: 1.0 mg/kg/injection, schedule: Q01DX001 (ip), vehicle: saline 115 % of control | dose: 1.0 mg/kg/injection, schedule: Q01DX009 (ip), vehicle: saline 106 % of control | dose: 1.0 mg/kg/injection, schedule: Q01DX Z (ip), vehicle: saline 107 % of control | dose: 1.5 mg/kg/injection, schedule: Q01DX Z (ip), vehicle: carboxymethylcellulose (CMC) 116 % of control | dose: 2.0 mg/kg/injection, schedule: Q01DX001 (ip), vehicle: saline 120 % of control | dose: 2.0 mg/kg/injection, schedule: Q01DX009 (ip), vehicle: saline 86 % of control | dose: 2.0 mg/kg/injection, schedule: Q01DX Z (ip), vehicle: carboxymethylcellulose (CMC) 102 % of control | dose: 4.0 mg/kg/injection, schedule: Q01DX001 (ip), vehicle: saline 114 % of control | dose: 5.0 mg/kg/injection, schedule: Q01DX001 (ip), vehicle: saline 118 % of control | dose: 8.0 mg/kg/injection, schedule: Q01DX001 (ip), vehicle: saline 108 % of control | dose: 8.0 mg/kg/injection, schedule: Q## X008 (ip), vehicle: saline 109 % of control | dose: 8.0 mg/kg/injection, schedule: Q## X032 (ip), vehicle: saline 103 % of control | dose: 10.0 mg/kg/injection, schedule: Q01DX001 (ip), vehicle: saline 109 % of control

Cc1ccc(Nc2ccc(C)cc2[N+](=O)[O-])cc1
inactive: dose: 100.0 mg/kg/injection, schedule: Q01DX001 (ip), vehicle: carboxymethylcellulose (CMC) 105 % of control | dose: 200.0 mg/kg/injection, schedule: Q01DX001 (ip), vehicle: carboxymethylcellulose (CMC) 102 % of control | dose: 400.0 mg/kg/injection, schedule: Q01DX001 (ip), vehicle: carboxymethylcellulose (CMC) 94 % of control

CC(C)C(N)C(=O)OC(=O)C(N)CCCCN (stereo not drawn)
inactive: dose: 12.5 mg/kg/injection, schedule: Q04DX002 (ip), vehicle: saline 107 % of control | dose: 25.0 mg/kg/injection, schedule: Q04DX002 (ip), vehicle: saline 104 % of control | dose: 50.0 mg/kg/injection, schedule: Q04DX002 (ip), vehicle: saline 101 % of control | dose: 100.0 mg/kg/injection, schedule: Q01DX001 (ip), vehicle: saline 108 % of control | dose: 200.0 mg/kg/injection, schedule: Q01DX001 (ip), vehicle: saline 101 % of control | dose: 400.0 mg/kg/injection, schedule: Q01DX001 (ip), vehicle: saline 98 % of control

Cc1nc(Cl)c2c(n1)Oc1nc(C)nc(Cl)c1C2c1ccc(Cl)cc1
inactive: dose: 50.0 mg/kg/injection, schedule: Q04DX003 (ip), vehicle: Klucel (hydroxypropylcellulose) (HPC) 97 % of control | [3] 96 % of control | [8] 97 % of control | [4] 97 % of control | [9] 101 % of control | [5] 107 % of control | [10] 95 % of control

N#CC(c1ccccc1)c1ccccc1
inactive: dose: 100.0 mg/kg/injection, schedule: Q01DX001 (ip), vehicle: other 97 % of control | dose: 200.0 mg/kg/injection, schedule: Q01DX001 (ip), vehicle: other 90 % of control | dose: 400.0 mg/kg/injection, schedule: Q01DX001 (ip), vehicle: other 95 % of control

Nc1nc2c(ncn2-c2cccc(-c3ccccc3)c2)c(=O)[nH]1
inactive: [6] 100 % of control | [7] 102 % of control | [1] 100 % of control | [2] 87 % of control

CCOC(=O)CC(=O)Cc1cccc([N+](=O)[O-])c1
inactive: [3] 91 % of control | [8] 100 % of control | [4] 88 % of control | [9] 107 % of control | [10] 107 % of control
